Reference: patent US7998718B2, “Identification and functional characterization of a novel ribosomal S6 protein kinase” (Ludwig Institute for Cancer Research Ltd., priority 1998, dated 2011)

Assays:
[1] = system: p70β^S6k (p70β-II isoform); assay: Stimulation of S6 kinase activity in transfected CHO-IR cells; type: cell-based, human; conditions: serum-starved CHO-IR cells
Procedure: (§1) FIG. 5A. CHO-IR cells were transfected with mock (lane 1) or plasmids containing cDNAs of FLAG-tagged p70α-I (lanes 2 and 3) or FLAG-tagged p70β-II (lanes 4 to 7). After serum starvation for 16 hrs, cells were treated with the vehicle (lanes 2 and 4), 10^−7 M insulin for 10 min (lanes 3 and 5), 15% serum for 10 min (lane 6) or 500 nM TPA for 30 min (lane 7). After cell lysis and subsequent immunoprecipitation with anti-FLAG antibodies, immunoprecipitates were subjected to a p70 S6 kinase assay using 40S subunits as substrates. The reaction mixture was separated by SDS-PAGE, transferred onto PVDF membrane. The membrane was analyzed by autoradiography (upper panel) and then immunoblotted with anti-FLAG antibodies (lower panel). A representative of three experiments is shown. ^32P incorporation into S6 was quantified by Molecular Dynamics. PhosphorImager™ and is expressed in arbitrary units (PI units).
(§2) Materials and Methods. HEK293 cells or CHO-IR cells were transfected with plasmids containing p70α^S6k and p70β^S6k sequences using lipofectAMINE under conditions recommended by the manufacturer (Gibco-BRL). Two days later, transfected cells were frozen in liquid nitrogen and stored until lysis. […]
(§3) Results. […] The activation of p70β^S6k (p70β-II isoform) by insulin was analyzed in CHO-IR cells, which stably over expresses the insulin receptor. […]

p70β^S6k (p70β-II) = assay: S6 kinase assay (40S subunits) on immunoprecipitates of transfected HEK293 cells treated with rapamycin or wortmannin; type: cell-based, human; conditions: 30 min, HEK293 cells in DMEM with 10% FCS
Procedure: (§4) FIG. 6A-6B. Effects of rapamycin and wortmannin on p70β^S6k and p70α^S6k. Effects of rapamycin and wortmannin on S6 phosphorylation activity of p70α-I or p70β-II. HEK293 cells were transfected with mock cDNA or plasmids containing FLAG-tagged p70β1 or p70β2 isoforms. After 48 h of transfection, cells were treated with vehicle or indicated concentrations of rapamycin or wortmannin for 30 min. After immunoprecipitation with anti-FLAG antibodies, the kinase activity was determined by a p70 S6 kinase assay using 40S subunits as substrates. The proteins of the reaction mixture were separated by SDS-PAGE, transferred onto PVDF membrane and analyzed by autoradiography (FIGS. 6A and 6B, upper panels). Subsequent immunoblotting with anti-FLAG antibody confirmed the expression of p70α-I (FIG. 6A, lower panel) and p70β-II (FIG. 6B, lower panel). A representative of three experiments is shown. ^32P incorporation into S6 was quantified by PhosphorImager and is expressed in arbitrary units (PI units).
Materials and Methods. Treatment of transfected cells with rapamycin or wortmannin was performed as follows: 48 h after transfection, the cells were treated with various concentrations of rapamycin or wortmannin for 30 min.
Results. […] Thus, the effects of both inhibitors on p70β^S6k activity were examined. […]

p70α^S6k (p70α-I) [2] = assay: as above; type: cell-based, rat; conditions: 30 min, HEK293 cells in DMEM with 10% FCS
Procedure: as §4
Materials and Methods. Restriction enzymes and DNA modification enzymes were obtained from standard commercial sources and used according to manufacturer's recommendations. Oligonucleotides which were used for sequencing of p70β^S6k and various PCR fragments were synthesized by Genosys or Japan Bioservice, Inc. The pcDNA1 and pcDNA3 mammalian expression vectors were from Invitrogen. […]

p70α^S6k (p70α-I) [3] = assay: Stimulation of S6 kinase activity in transfected CHO-IR cells; type: cell-based, rat; conditions: 10^-7 M insulin for 10 min, serum-starved CHO-IR cells
Procedure: as §1, §2, §3

40S ribosomal subunit = assay: In vitro S6 kinase assay of activated kinase variants expressed in HEK293 cells; type: biochemical; conditions: versus wild type p70α^S6k
Procedure: Materials and Method. Activated variants of p70β^S6k and p70α^S6k were made by site-directed mutagenesis. Oligonucleotide primers, specific to the site to be mutated and complimentary to opposite strands of p70β^S6k and p70α^S6k sequences were generated as recommended by manufacturer (Stratagene). Site directed mutagenesis was carried out using pcDNA3/Glu-tag-p70β^S6k and pcDNA3/Glu-tag-p70α^S6k expression vector/plasmids as templates, according to the recommended protocol (Stratagene). All mutations were verified by DNA sequencing. Expression of mutated forms of both kinases was analyzed by immunobloting with anti-Glu-tag antibodies. The activity of normal and mutated forms of both kinases was measured by in vitro S6 kinase assay. 40S ribosomal subunit was used as a substrate in this reaction.
We have generated an activated form of p70β^S6k by substituting putative phosphorylation site Thr 401 with Aspartic acid (Asp) (“p70β^S6k (T401D)”) as shown in FIG. 10.

[4] = system: p70β^S6k (p70β-II isoform); assay: Stimulation of S6 kinase activity by PDGF in transfected PAE-PDGF-R cells; type: cell-based, human; conditions: 20 ng/ml PDGF BB for 20 min, serum-starved PAE-PDGF-R cells
Procedure: (§5) FIG. 5B. Stimulation of the p70α^S6k and p70β^S6k activity towards ribosomal S6 protein by PDGF in PAE-PDGF-R cells. PAE-PDGF-R cells were transfected with EE-tagged p70α^S6k and p70β^S6k plasmids using lipofectAMINE. After 24 hr, transfected cells were serum-starved for 16 hr and stimulated with 20 ng/ml PDGF BB (Calbiochem) for 20 min. Control cells were treated with the vehicle under the same conditions. After immunoprecipitation with anti-EE antibodies, an in vitro kinase reaction was carried out in the presence of 40S subunits, containing the S6 protein. Reaction mixtures were separated by SDS-PAGE and incorporation of ^32P into S6 protein was measured by PhosphoImager.
(§6) Materials and Methods. HEK293 cells or CHO-IR cells were transfected with plasmids containing p70α^S6k and p70β^S6k sequences using lipofectAMINE under conditions recommended by the manufacturer (Gibco-BRL). Two days later, transfected cells were frozen in liquid nitrogen and stored until lysis. After cell extraction, the lysates were subjected to immunoprecipitation and/or immunoblot analysis. If cells were to be stimulated, they were starved in medium without FCS for 16 h and then stimulated with 10^−7 M insulin for 10 min, 15% FCS for 10 min, 500 nM TPA for 30 min or vehicle alone. PAE-PDGF-R cells were transfected with appropriate plasmids using lipofect under conditions recommended by the manufacturer. […]

p70α^S6k = assay: as above; type: cell-based, rat; conditions: 20 ng/ml PDGF BB for 20 min, serum-starved PAE-PDGF-R cells
Procedure: as §5, §6

CCCCCCCCCCCCCC(=O)O[C@@H]1[C@@H](C)[C@@]2(O)[C@@H](C=C(CO)C[C@]3(O)C(=O)C(C)=C[C@@H]23)[C@@H]2C(C)(C)[C@]12OC(C)=O [TPA]
stimulation of p70β^S6k phosphorylation of ribosomal protein S6 ([1]; 500 nM TPA for 30 min): stimulated

CO[C@H]1C[C@@H]2CC[C@@H](C)[C@@](O)(O2)C(=O)C(=O)N2CCCC[C@H]2C(=O)O[C@H]([C@H](C)C[C@@H]2CC[C@@H](O)[C@H](OC)C2)CC(=O)[C@H](C)/C=C(\C)[C@@H](O)[C@@H](OC)C(=O)[C@H](C)C[C@H](C)/C=C/C=C/C=C/1C [rapamycin]
inhibition of p70β^S6k (p70β^S6k (p70β-II); 20 nM rapamycin): 46%
inhibition of the p70α^S6k (p70α^S6k (p70α-I) [2]; 20 nM rapamycin): 92%

COC[C@H]1OC(=O)c2coc3c2[C@@]1(C)C1=C(C3=O)[C@@H]2CCC(=O)[C@@]2(C)C[C@H]1OC(C)=O [wortmannin]
inhibition of p70β^S6k activity (p70β^S6k (p70β-II); 100 nM wortmannin): 62%
inhibition of p70α^S6k activity (p70α^S6k (p70α-I) [2]; 100 nM wortmannin): 86%

insulin: hormone used to stimulate CHO-IR cells
induction of p70β^S6k activity towards ribosomal S6 protein ([1]; 10^-7 M insulin for 10 min): 2.8 fold
activation of p70α^S6k activity (p70α^S6k (p70α-I) [3]): 3.5 fold

p70α^S6k (T412D): activated version of p70α^S6k made by site-directed mutagenesis
S6 kinase activation compared with wild type kinase (40S ribosomal subunit): 18 fold

B1: PDGF: PDGF BB growth factor purchased from Calbiochem (protein, UniProt P01127 82-190, looked up)
Platelet-derived growth …: SLGSLTIAEPAMIAECKTRTEVFEISRRLIDRTNANFLVWPPCVEVQRCSGCCNNRNVQCRPTQVQLRPVQVRKIEIVRKKPIFKKATVTLEDHLACKCETVAAARPVT
modifications: Platelet-derived growth factor subunit B
notes: PDGF BB growth factor purchased from Calbiochem
activation of p70β^S6k [4]: 30 fold
activation of p70α^S6k (p70α^S6k): 3.4 fold
